Test results from US6942963B1, “Methods for identifying treatments for neurotoxicity in Alzheimer's disease caused by β-amyloid peptides” (Massachusetts Institute of Technology, priority 1997, dated 2005).
“Also recorded” adds a separate entry of the source. Read-outs that look alike come from different tables or passages of the source. Non-standard residues stand in square brackets, D forms with d. Residues, ends and D or L forms follow the SMILES beside them.

Key:
[1] = system: βAP25-35-induced calcium influx, hNT cells; test: βAP25-35-induced calcium influx in hNT cells: effect of channel antagonists and decoy peptides; type: cell-based, human; details: for effect on increase in internal calcium concentration due to βAP25-35: decoy peptide mixed with βAP25-35 at ratio 1:1 (20 μM+20 μM), hNT cells; for effect on βAP25-35 calcium influx at molar ratio: filtered stocks
hNT cells [2] = test: Internal calcium concentration [Ca2+]int in hNT cells (fura-2) on exposure to β-amyloid peptide or test agent alone; type: cell-based, human; details: hNT cells, decoy peptide alone at 20 μM, filtered stocks, Tyrode's/2 mM Ca
[3] = type: physicochemical; details: water
βAP1-42 = biological target: T1, βAP1-42 (Homo sapiens, UniProt P05067); test: Aggregation rate of βAP1-42 by light scattering at 500 nm; type: biochemical; details: decoy peptide at 1:1 molar ratio, Tyrode's/2 mM Ca^2+, light scattering 500 nm
T1 construct: βAP1-42 (Aβ1-42); purchased Quality Control Biochemicals; host or cells: synthetic peptide

βAP25-35 = biological target: T2, βAP25-35 (Homo sapiens, UniProt P05067); test: Aggregation rate of βAP25-35 by light scattering at 500 nm; type: biochemical; details: decoy peptide at approximately equimolar concentration, Tyrode's/2 mM Ca^2+, light scattering 500 nm
T2 construct: made in house; host or cells: chemical peptide synthesis (BioPolymers Laboratory, MIT), HPLC purified

[4] = system: βAP1-42-induced calcium influx, hNT cells; test: βAP1-42 (Aβ1-42) aggregate-induced calcium influx in hNT cells: effect of decoy peptides and channel blockers; type: cell-based, human; details: for effect on βAP1-42 calcium influx: βAP1-42 25 μM coincubated with equimolar decoy peptide at 37° C. for 44 hours
hNT cells [5] = test: Membrane depolarization of hNT cells by aggregated Aβ1-42 (DiBAC4(3) fluorescence); type: cell-based, human
Procedure: Changes in membrane potential were measured using the fluorescent potentiometric probe DiBAC4(3), (Molecular Probes, Inc., Eugene, Oreg.). This dye, bis-(1,3-dibutylbarbituric acid)trimethine oxonol, detects membrane depolarization, because it enters depolarized cells and binds to intracellular proteins or membranes. […] Hyperpolarization results in extrusion of the anionic dye and thus a decrease in fluorescence. Our measurements use two dyes, fura-2 and DiBAC4(3), since these dyes have excitation wavelengths that are far apart, but have similar emission wavelengths. DiBAC4(3) was added to fura-2AM loaded hNT cells at a concentration of 100 nM in Tyr2Ca. Rapidly alternating measurements of fura-2 (excited at 340 & 380 nm) and DiBAC4(3) (excited at 490 nm) were performed using emission at 516 nm. Both dyes were measured using the special “Fura2-Fluo3” filter set 7400 from Chroma Technology (Brattleboro, Vt.), a Zeiss Axiovert 100 inverted microscope and a photometry system (model “Delta Ram” from Photon Technology International, Inc., Monmouth Junction, N.J.).
The bis-oxonol dye DiBAC4(3) was used as an indicator of transmembrane electrical potential changes (Langheinrich and Daut, J. Physiol. 502:397-408, 1997) when our hNT cells were treated with, for example, the β-amyloid peptide Aβ1-42. The use of this dye enabled us to monitor groups of 5-15 neurons, rather than single cells as would be the case with patch clamping methods. We expected great variability from cell to cell, as was found in our earlier patch clamp work (Sanderson et al., Brain Res. 744:7-14, 1997). The method has been used by many laboratories for the determination of membrane potentials in different cell types. Fluorescence is increased upon membrane depolarization as more dye enters the cytosol, resulting in increased binding to proteins (Braiuner et al., Biochim. Biophys. Acta 771:[…], 1984). Partitioning of bis-oxonol dye between the plasma membrane and the cytosol follows the Nernst equation (Langheinrich and Daut, 1997). Unless otherwise indicated, all measurements were carried out in Tyrode's solution containing 2 mM Ca.
We calibrated the gross fluorescence as a function of membrane potential by treating a culture of hNT neurons, bathed in Tyrode's 2Ca buffer with the usual 3 mM K^+, containing 97 nM DiBAC4(3), with Tyrode's 2Ca buffer containing 40 mM KCl. We measured the gross fluorescence at excitation=490 nm and emission=510 nm for the depolarization by KCl and for depolarization by the Aβ1-42 peptide. We used the formula proposed by Langheinrich and Daut, 1997: % ΔF=(1−Fmin/Fmax)*100=ΔEMmV
where Fmin=fluorescence before treatment, Fmax=fluorescence during treatment, ΔEM mV is the change in membrane potential brought about by the treatment. The calculation based on the expected depolarization by changing from 3 mM KCl to 40 MM KCl gave a value of ΔEM=3.8 mV/1% ΔF.
Groups of hNT neuronal cells (5-17) were exposed to Aβ1-42 (20 μM) that had been incubated at 37° C. for 48 hours; 97 nM DiBAC4(3) was present. Fluorescence was measured as described above; Ex=490 nm, Em=510 nm.

[6] = system: voltage-gated calcium channels; test: Previous patch-clamp experiments on β-amyloid peptide calcium influx; type: cell-based
[7] = aggregated Aβ1-42 20 μM plus the named addition, [Ca^2+] 2 mM, Na^+

T1 sequence (P05067 672-713): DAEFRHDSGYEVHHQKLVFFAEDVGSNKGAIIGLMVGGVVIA

With CC[C@@H](C)[C@@H](N)C(=O)N[C@H](C)C(=O)N[C@H](C)C(=O)NCC(=O)N[C@@H](C(=O)N[C@@H](C(=O)NCC(=O)NCC(=O)NCC(=O)O)[C@H](C)O)[C@H](C)CC [DP1, ^+NH3-IAAGITGGG-COO^−] (H-[dI][dA][dA]G[dI][dT]GGG-OH) the “effect on increase in internal calcium concentration due to βAP25-35” value [1] was “reduced or abolished the increase in the internal calcium concentration”, the “effect of decoy peptide by itself on cytosolic calcium concentrations” value (hNT cells [2]) was “raise cytosolic calcium concentrations somewhat” and the solubility [3] was “water soluble”.

With “^+NH3.T.P.I.R^+.T.P.A.P.A.COO^− (H-[dT][dP][dI][dR][dT][dP][dA][dP][dA]-OH; also: modified) [DP16]” the “reduction of aggregation rate of βAP1-42” value (βAP1-42) was “about 50%”, the “effect on aggregation rate of βAP25-35” value (βAP25-35) was “reduced the aggregation rate of βAP25-35” and the “effect on βAP1-42 calcium influx” value ([4]; hNT cells) was “reduced or abolished the effect of βAP1-42 on the calcium influx”.

In the case of “^+NH3-TVIR^+TIAAA-COO^− (TVIRTIAAA) [DP8]”, the “effect on aggregation rate of βAP25-35” value (βAP25-35) is reported as “did not reduce the aggregation rate of βAP25-35”, the “effect on βAP25-35 calcium influx at molar ratio” value ([1]; DP8:βAP25-35 0.2:1 (5 mM DP8+20 mM βAP25-35)) is reported as “modestly reduced” and the “effect on βAP25-35 calcium influx at molar ratio” value ([1]; DP8:βAP25-35 1:1 (10 mM DP8+10 mM βAP25-35)) is reported as “reduce or abolish the effect of the β-amyloid peptide”. For the same compound, the “effect on βAP25-35 calcium influx at molar ratio” value ([1]; DP8:βAP25-35 2:1 (20 mM DP8+11 mM βAP25-35)) was “reduce or abolish the effect of the β-amyloid peptide”, the “effect on increase in internal calcium concentration due to βAP25-35” value [1] was “reduced or abolished the increase in the internal calcium concentration” and the “effect on βAP1-42 calcium influx” value ([4]; hNT cells) was “reduced or abolished the effect of βAP1-42 on the calcium influx”. For the same compound, the “effect of decoy peptide by itself on cytosolic calcium concentrations” value (hNT cells [2]) was “no effect on cytosolic calcium concentrations”.

For [Cl][Cd][Cl] [cadmium chloride], the “effect on membrane depolarization by aggregated Aβ1-42” value (hNT cells [5]) was “did not prevent membrane depolarization” and the “block of β-amyloid peptide calcium influx” value [6] was “did not block the calcium influx”.

For N#Cc1cc2c(cc1[N+](=O)[O-])=NC(=O)C(=O)N=2 [CNQX, 6-cyano-7-nitroquinoxaline-2,3-dione], the “% ΔF in presence of addition” value (hNT cells [5]; [7]) was 17.0%, the “Δ EM in presence of addition” value (hNT cells [5]; [7]) was “+64.6 mV” and the “effect on membrane depolarization (DiBAC4(3) fluorescence plateau) by aggregated Aβ1-42” value (hNT cells [5]; hNT cells, CNQX (20 μM) added after Aβ1-42aggr) was “little change in fluorescence; also recorded: remained unchanged; also recorded: did not significantly change fluorescence”. The “inhibition of membrane depolarization by aggregated Aβ1-42” value (hNT cells [5]; simultaneous presence, separately or together, summary statement) was “not inhibited”, the “[Ca^2+]int when antagonist added after βAP25-35 exposure” value ([1]; cells first exposed to 21 μM βAP25-35 (270% of control), then βAP25-35 plus CNQX 22 μM) was “fell to control levels” and the “block of calcium influx into hNT neuronal cells caused by βAP25-35” value ([1]; concentration not stated) was “can be blocked”. The “effect on βAP25-35-induced calcium influx” value ([1]; βAP25-35 21 μM, CNQX at 22 μM, applied together) was “completely prevented”, the “effect on calcium influx / cytosolic calcium caused by aggregated Aβ1-42” value ([4]; hNT cells, aggregated Aβ1-42, 20 μM CNQX added after desensitization) was “completely inhibited; also recorded: lowers the remaining calcium level to the original control value” and the “inhibition of calcium influx caused by aggregated Aβ1-42” value ([4]; summary statement, concentration not given) was “inhibited”.

For NC1=N[C@H](O)[C@H]2[C@H]3O[C@]4(O)O[C@@H]([C@@H](O)[C@@]2(N1)[C@@H]4O)[C@]3(O)CO [TTX, tetrodotoxin], the “% ΔF in presence of addition” value (hNT cells [5]) was 17.3%, the “effect on membrane depolarization by aggregated Aβ1-42” value (hNT cells [5]) was “allowed both membrane depolarization and a rise in cytosolic calcium levels; also recorded: allows both membrane depolarization” and the “Δ EM in presence of addition” value (hNT cells [5]) was “+65.7 mV”. The “effect on rise in cytosolic calcium caused by aggregated Aβ1-42” value [4] was “allowed both membrane depolarization and a rise in cytosolic calcium levels; also recorded: the rise in cytosolic calcium”.
